PMC7010025 (EFSA Journal, 2017)
Converted amounts (≈) assume the structure as drawn. “Also recorded” adds a separate entry of the source. Read-outs that look alike come from different tables or passages of the source.

Assays:
[1] = test system: S. Typhimurium TA98, TA100, TA1535, TA1537 Escherichia coli WP2uvrA; conditions: ref Nucro‐Technics, 2011a, cited from earlier work; for Increase in colony counts per plate vs negative controls: positive controls
[2] = cited from earlier work; for Decarboxylation product concentration: starting batch held ~0.4% S9379
[3] = oral dosing in rat; ref Senomyx, 2011b; cited from earlier work
[4] = cited from earlier work; for Dry powder stability: 100°C up to 24 h
[5] = human, 60‐min incubation; ref PharmOptima, 2011; cited from earlier work
[6] = gavage, gestation days 6 through 20; ref WIL Research, 2012a; cited from earlier work
[7] = 10 mg/kg oral, ref Senomyx, 2013, cited from earlier work; for Average recovered from faeces and urine: 72‐h collection
[8] = ref applicant dossier, cited from earlier work
[9] = read-out: Combined mean Cmax; diet 100 mg/kg per day, day 7; ref MPI, 2011b; cited from earlier work
[10] = rat, 60‐min incubation; ref PharmOptima, 2011; cited from earlier work
[11] = test system: Salmonella Typhimurium strains, TA98 and TA100; conditions: up to 5,000 μg/plate, ref BioReliance, 2011, cited from earlier work
[12] = test system: bone marrow polychromatic erythrocytes; conditions: ref Nucro‐Technics, 2011c, cited from earlier work
[13] = ref WIL Research, 2012b; cited from earlier work
[14] = ref Senomyx, 2011a, cited from earlier work
Margins of safety = conditions: child; developmental toxicity NOAEL vs chronic APET
[15] = male and female rats, highest dose tested; ref MPI, 2011b; cited from earlier work
[16] = test system: primary human lymphocytes; conditions: ref Nucro‐Technics, 2011b, cited from earlier work; for Cells with structural chromosomal aberrations: 20 h without S9‐mix
[17] = cake, 177°C 30 min, ref Senomyx, 2016
[18] = cookie, 204°C 8 min, ref Senomyx, 2016
[19] = hard candy, 149°C ~30 min, ref Senomyx, 2016
[20] = sulfate salt in sugar cookie, 177°C 10 min, 18 mg/kg
[21] = cake, 177°C 30 min, nominal 5 mg/kg, ref Senomyx, 2016
[22] = cookie, 204°C 8 min, nominal 5 mg/kg, ref Senomyx, 2016
[23] = hard candy, 149°C ~30 min, nominal 15 mg/kg, ref Senomyx, 2016
[24] = 100 mg/kg per day gavage, day 7

## Nc1ccc2cc3ccccc3cc2c1 [2‐aminoanthracene]
[1]; experiments with S9‐mix
  Increase in colony counts per plate vs negative controls: ≥ 3.1 fold

## Nc1c2ccccc2nc2ccccc12 [9‐aminoacridine]
[1]; experiments without S9‐mix
  Increase in colony counts per plate vs negative controls: ≥ 3.1 fold

## O=[N+]([O-])c1ccc2c(c1)Cc1ccccc1-2 [2‐nitrofluorene]
[1]; experiments without S9‐mix
  Increase in colony counts per plate vs negative controls: ≥ 3.1 fold

## [N-]=[N+]=[N-].[Na+] [sodium azide]
[1]; experiments without S9‐mix
  Increase in colony counts per plate vs negative controls: ≥ 3.1 fold

## Cc1cc(N)c2c(OCC(C)(C)C(=O)NC(C)C)cccc2n1 [S9379, 4‐amino‐5‐(3‐(isopropylamino)‐2,2‐dimethyl‐3‐oxopropoxy)‐2‐methylquinoline]
[2]; [17]
  Decarboxylation product, % of [FL‐no: 16.130] nominal: 0.82%
  Decarboxylation product concentration: 0.041 mg/kg
[2]; cake, cookie and candy prototypes
  Breakdown product S9379, % of nominal [FL‐no: 16.130] concentration: < 1%
[2]; [18]
  Decarboxylation product, % of [FL‐no: 16.130] nominal: 0.86%
  Decarboxylation product concentration: 0.043 mg/kg
[2]; [19]
  Decarboxylation product, % of [FL‐no: 16.130] nominal: 0.94%
  Decarboxylation product concentration: 0.14 mg/kg
[2]; sulfate salt in hard candy, nominal 24 mg/kg
  Concentration of potential degradant S9379: 0.04 mg/kg
[2]; [20]
  Concentration of potential degradant S9379: 0.02 mg/kg
  S9379, % of nominal sulfate salt concentration: 0.1%

## Cc1nc2cccc(OCC(C)(C)C(=O)NC(C)C)c2c(N)c1C(=O)O.Cc1nc2cccc(OCC(C)(C)C(=O)NC(C)C)c2c(N)c1C(=O)O.O.O.O=S(=O)(O)O [[FL‐no: 16.130] sulfate salt, 4‐Amino‐5‐(3‐(isopropylamino)‐2,2‐dimethyl‐3‐oxopropoxy)‐2‐methylquinoline‐3‐carboxylic acid hemisulfate monohydrate salt]
[3]
  Bioequivalence to the candidate substance (systemic exposure): equivalent
[2]; sulfate salt in hard candy, 149°C ~30 min, nominal 24 mg/kg
  Recovery: 104%
[2]; [20]
  Recovery: 100%
[4]; ref Senomyx, 2016
  Dry powder stability: stable

## c1ccc2c(c1)cc1ccc3cccc4ccc2c1c34 [benzo[α]pyrene]
[1]; experiments with S9‐mix
  Increase in colony counts per plate vs negative controls: ≥ 3.1 fold

## COS(C)(=O)=O [methyl methanesulfonate]
[1]; experiments without S9‐mix
  Increase in colony counts per plate vs negative controls: ≥ 3.1 fold

## O=P1(N(CCCl)CCCl)NCCCO1 (stereo not shown) [cyclophosphamide monohydrate]
[1]; experiments with S9‐mix
  Increase in colony counts per plate vs negative controls: ≥ 3.1 fold

## Cc1nc2cccc(OCC(C)(C)C(=O)NC(C)C)c2c(N)c1C(=O)O [[FL‐no: 16.130], 4‐Amino‐5‐(3‐(isopropylamino)‐2,2‐dimethyl‐3‐oxopropoxy)‐2‐methylquinoline‐3‐carboxylic acid]
[5]
  Metabolism by microsomes: not metabolised
[6]
  Result, dose range‐finding developmental toxicity study: 1,000 mg/kg bw per day
[7]
  Recovered in faeces: 75.5–99.5%
  Recovered in urine: 0.1–0.6%
[7]; female rats
  Average recovered from faeces and urine: 91.4%
[7]; male rats
  Average recovered from faeces and urine: 86.2%
[8]; 95% ethanol
  Solubility in ethanol: 1,600 mg/L
[8]; in water
  Solubility: 700 mg/L (≈ 1950 µM)
[9]
  Cmax: 317 nM
[2]; [21]
  Mean measured concentration: 5.8 mg/kg
  Measured concentration: 5.1 to 6.1 mg/kg
[2]; cake, cookie and candy, typical processing conditions
  Stability in model product prototypes: stable
[2]; [22]
  Mean measured concentration: 5.4 mg/kg
  Measured concentration: 5.1 to 5.8 mg/kg
[2]; [23]
  Mean measured concentration: 13.1 mg/kg
  Measured concentration: 12.7 to 13.4 mg/kg
  Recovery, % of nominal concentration: 87%
[10]
  Metabolism by microsomes: not metabolised
[11]; TA98, TA100, with and without S9‐mix
  Bacterial gene mutation assay result: not mutagenic; also recorded: Negative
[11]
  Bacterial toxicity: did not result in bacterial toxicity
[12]; any dose tested
  PCE/NCE ratio: No statistically significant decrease
[12]; single oral gavage, 500, 1,000 and 2,000 mg/kg bw, 24, 36, 48 h, no evidence of bone marrow exposure
  In vivo micronucleus test result: did not induce micronuclei; also recorded: Negative
[13]
  NOAEL, developmental toxicity study in the rat: 1,000 mg/kg bw per day
[14]; [24]
  Combined mean AUC0–24: 232 ng·h/mL
  Combined mean Cmax: 154 ng/mL
[14]; oral gavage, male and female rats, listed as candidate substance
  Oral bioavailability (%F): 0.53–1.19%
[14]; repeated oral dosing, seven consecutive days
  Accumulation in plasma: No significant accumulation
Margins of safety
  Margin of safety: 27,000
[4]; 40°C, pH 2.8, 4.0 and 7.1, 4 weeks, ref applicant dossier
  Stability in aqueous solution: stable
[4]; ref Senomyx, 2016
  Dry powder stability: stable
[4]; 175°C, S9379 only decomposition product, ref Senomyx, 2016
  Dry powder stability at 175°C: thermal degradation may take place
[15]
  NOAEL following 13 weeks of dietary administration: 100 mg/kg bw per day

## Cc1nc2cccc(OCC(C)(C)C(=O)NC(C)C)c2c(N)c1C(=O)[O-].[Na+] [[FL‐no: 16.130] sodium salt, sodium 4‐amino‐5‐(3‐(isopropylamino)‐2,2‐dimethyl‐3‐oxopropoxy)‐2‐methylquinoline‐3‐carboxylate]
[1]; any concentration including 5,000 μg per plate
  Toxicity to tester strains: No toxicity was observed
[1]; plate incorporation and pre‐incubation, with and without metabolic activation, up to 5,000 μg/plate
  Bacterial gene mutation assay result: Negative
[16]; 3 h with S9‐mix, 125 μg/mL (control 3.5%)
  Cells with chromosomal aberrations: 5.0%
[16]; 3 h with S9‐mix, 250 μg/mL
  Cells with chromosomal aberrations: 4.0%
[16]; 3 h without S9‐mix, 250 μg/mL
  Cells with chromosomal aberrations: 2.0%
[16]; 125 μg/mL (control 1.5%)
  Cells with structural chromosomal aberrations: 2.0%
[16]; 250 μg/mL
  Cells with structural chromosomal aberrations: 1.0%
[16]; 500 μg/mL
  Cells with structural chromosomal aberrations: 3.0%
